# Measurements from PMC10283505, “CVM-1118 (foslinanib), a 2-phenyl-4-quinolone derivative, promotes apoptosis and inhibits vasculogenic mimicry via targeting TRAP1” (Pathology and Oncology Research, 2023).
# “Also recorded” adds a separate entry of the source.
# Key:
# [1] = tested on: HCT-116 cells; test: Flow cytometry cell cycle analysis (PI); type: cell-based, human; details: HCT-116, 48 hours, dose-response
# Description: Figure S2 CVM-1125 induced cell cycle arrest at G2/M in HCT-116 cells
# Dose-response of CVM-1125 on cell cycle profile in HCT-116 cells was assessed by flow cytometry after treatment for 48 hours. Fluorescent signals of propidium iodide (FL2-A) of single cells were attributed to cell cycle phases and converted into percentage of the whole population of single cells (100%). The data shown are representative of at least three independent experiments.
# (1 picture or pasted object on this page, not shown here)
# [2] = molecular target: T1, human Hsp90 recombinant protein (HSP90AB1) (Homo sapiens, UniProt P08238); test: Surface plasmon resonance (Biacore); type: binding; details: recombinant human Hsp90 beta protein
# T1 construct: purchased Abcam ab131923
# Description: To confirm the molecular binding of the targeted protein, Surface Plasmon Resonance (SPR) was performed with a Biacore 3000. TRAP1 recombinant protein (Abcam, ab123775) or human Hsp90 recombinant protein (HSP90AB1, Abcam, ab131923) were immobilized on a CM5 sensor chip surface using the amine coupling method according to the manufacturer’s instruction (Biacore, GE Healthcare). CVM-1125 was dissolved in sodium carbonate buffer (pH 9) and then diluted in HBS-EDTA-P20 buffer to desired concentrations (five serial dilutions from 1 × 10^−5 to 1 × 10^−8 M) and injected at flow 30 μL/min with KINJET 60/180 %pos, analyte position, volume, and dissociation time. Specific binding was calculated using BiaEval 3 software.
# [3] = molecular target: TGFβ1/1 (HIC5) (Homo sapiens, UniProt O43294); test: Surface plasmon resonance (Biacore); type: binding; details: TGFβ1/1, SPR
# [4] = molecular target: T2, TRAP1 (Homo sapiens, UniProt Q12931); test: In vitro ATPase assay; type: biochemical; details: data not shown
# T2 sequence (Q12931 60-704): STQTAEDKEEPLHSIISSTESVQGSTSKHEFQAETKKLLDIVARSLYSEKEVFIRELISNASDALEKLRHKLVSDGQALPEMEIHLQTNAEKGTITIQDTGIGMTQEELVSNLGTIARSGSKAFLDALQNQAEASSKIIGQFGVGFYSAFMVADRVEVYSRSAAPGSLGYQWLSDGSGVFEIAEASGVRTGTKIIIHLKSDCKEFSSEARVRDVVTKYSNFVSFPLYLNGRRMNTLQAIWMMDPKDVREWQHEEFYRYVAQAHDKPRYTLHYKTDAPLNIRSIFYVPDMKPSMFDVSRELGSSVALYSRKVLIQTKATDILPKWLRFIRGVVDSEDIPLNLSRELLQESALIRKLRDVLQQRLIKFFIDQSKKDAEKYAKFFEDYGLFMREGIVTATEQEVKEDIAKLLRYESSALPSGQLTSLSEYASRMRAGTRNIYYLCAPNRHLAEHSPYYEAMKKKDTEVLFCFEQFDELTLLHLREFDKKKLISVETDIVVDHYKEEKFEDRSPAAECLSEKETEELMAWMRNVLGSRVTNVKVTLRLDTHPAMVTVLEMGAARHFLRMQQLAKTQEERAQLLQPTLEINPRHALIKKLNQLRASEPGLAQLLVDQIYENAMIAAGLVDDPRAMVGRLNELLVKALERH
# [5] = tested on: OVCAR-3; test: NCI 60 cytotoxicity screening; type: cell-based; details: Homo sapiens; OVCAR-3, Ovarian
# [6] = tested on: SF-295; test: NCI 60 cytotoxicity screening; type: cell-based; details: Homo sapiens; SF-295, CNS
# [7] = tested on: IGROV1; test: NCI 60 cytotoxicity screening; type: cell-based; details: Homo sapiens, IGROV-1; IGROV1, Ovarian
# [8] = tested on: SK-MEL-5; test: NCI 60 cytotoxicity screening; type: cell-based; details: Homo sapiens; SK-MEL-5, Melanoma
# [9] = tested on: NCI-H23; test: NCI 60 cytotoxicity screening; type: cell-based; details: Homo sapiens; NCI-H23, NSCLC
# [10] = tested on: OVCAR-4; test: NCI 60 cytotoxicity screening; type: cell-based; details: Homo sapiens; OVCAR-4, Ovarian
# [11] = tested on: CAKI-1; test: NCI 60 cytotoxicity screening; type: cell-based; details: Homo sapiens; CAKI-1, Renal
# [12] = tested on: HCT-116; test: In vivo vasculogenic mimicry (CD31−/RBC+ channels) in orthotopic HCT-116 xenograft; parameters: species or system BALB/c nude mice; details: 100 mg/kg oral, excised colon tumor tissues, vs vehicle
# Description: This animal study was contracted to CrownBio International R&D Center (Beijing, China) and was conducted under the approval of the Animal Ethics Committee at CrownBio in compliance with institutional and national guidelines. Seven-to eight-week-old female BALB/c nude mice were obtained from HFK Bio-Technology Co., Ltd. (Beijing, China). HCT-116 cells (2 × 10^6) were suspended in 20 μL PBS and then injected into the cecal wall. Treatment began on day 14 after cell inoculation when tumor reached ∼100 mm^3 measured in a satellite group of three mice. Treatment groups include vehicle control [PEG400:pH 10 carbonate buffer (40:60)], CVM-1118 at 20, 50, and 100 mg/kg given orally daily for 28 days, and CVM-1118 at 20 mg/kg given as intravenous injection once every 2 days for 7 times. Tumor volumes were measured at the end of in-life study on day 43. […] Briefly, rabbit anti-human CD31 antibody (Abcam) was used as the primary Ab for the staining and the number of channels with CD31+/red blood cell (RBC)+, or CD31−/RBC+ were counted based on five light fields (×200) on the whole section of each sample in each group under microscope. […] Statistical analysis for VM formation was evaluated using Mann-Whitney test. All data were analyzed using GraphPad Prism 9.5.
# Sequence of TGFβ1/1 (HIC5) (O43294 whole entry): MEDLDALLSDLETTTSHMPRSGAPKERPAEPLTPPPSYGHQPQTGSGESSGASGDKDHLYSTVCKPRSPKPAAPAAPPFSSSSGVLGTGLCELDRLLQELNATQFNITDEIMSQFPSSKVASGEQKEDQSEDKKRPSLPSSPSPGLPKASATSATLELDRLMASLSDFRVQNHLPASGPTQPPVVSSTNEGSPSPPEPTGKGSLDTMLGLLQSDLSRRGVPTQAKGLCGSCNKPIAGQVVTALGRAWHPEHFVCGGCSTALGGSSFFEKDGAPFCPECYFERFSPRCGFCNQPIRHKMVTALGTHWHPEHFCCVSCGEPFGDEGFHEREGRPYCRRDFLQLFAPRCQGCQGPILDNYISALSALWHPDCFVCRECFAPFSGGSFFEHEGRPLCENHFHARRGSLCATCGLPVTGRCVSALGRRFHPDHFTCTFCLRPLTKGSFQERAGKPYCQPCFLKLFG
# T1 sequence (P08238 whole entry): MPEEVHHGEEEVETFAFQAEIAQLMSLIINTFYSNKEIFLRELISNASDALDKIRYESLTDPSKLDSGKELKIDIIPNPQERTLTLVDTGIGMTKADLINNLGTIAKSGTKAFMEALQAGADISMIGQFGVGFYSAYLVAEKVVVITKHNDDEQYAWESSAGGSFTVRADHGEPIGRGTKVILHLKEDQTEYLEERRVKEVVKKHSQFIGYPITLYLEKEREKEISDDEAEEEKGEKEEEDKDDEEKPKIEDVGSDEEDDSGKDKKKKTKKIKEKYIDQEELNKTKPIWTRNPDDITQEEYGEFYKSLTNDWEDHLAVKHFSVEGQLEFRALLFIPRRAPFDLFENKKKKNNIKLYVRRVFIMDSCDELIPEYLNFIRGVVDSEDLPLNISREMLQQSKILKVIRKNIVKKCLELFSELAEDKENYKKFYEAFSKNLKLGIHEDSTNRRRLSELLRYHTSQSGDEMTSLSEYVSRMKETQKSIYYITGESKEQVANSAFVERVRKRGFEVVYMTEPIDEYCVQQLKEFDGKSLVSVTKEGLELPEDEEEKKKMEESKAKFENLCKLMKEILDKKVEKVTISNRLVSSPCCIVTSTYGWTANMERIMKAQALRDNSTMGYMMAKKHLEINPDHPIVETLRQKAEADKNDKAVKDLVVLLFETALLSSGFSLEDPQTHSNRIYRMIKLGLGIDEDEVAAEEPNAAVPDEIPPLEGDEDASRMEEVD
SMILES,Effect on cell cycle profile [1],interaction with Hsp90 by SPR [2],Association (ka) [3],Dissociation (kd) [3],KD (kd/ka) [3],influence on the ATPase activity of TRAP1 [4],GI50 [5] [nM],GI50 [6] [nM],GI50 [7] [nM],GI50 [8] [nM],GI50 [9] [nM],GI50 [10] [nM],GI50 [11] [nM],reduction of VM network formation (VM channels) [12] [%]
COc1ccc2[nH]c(-c3cccc(F)c3)cc(=O)c2c1O [CVM-1125],G2/M arrest and increased sub-G1,no specific interaction; also recorded: not interacting,No dose dependent interaction,No dose dependent interaction,No dose dependent interaction,no influence,19.1,25.5,27,29.8,34.5,43.6,46.7,–
COc1ccc2[nH]c(-c3cccc(F)c3)cc(=O)c2c1OP(=O)(O)O [CVM-1118],–,–,–,–,–,–,–,–,–,–,–,–,–,85
